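Values below derive from 48-hour exposures of cells grown in 96-well plates, with endpoints linearly interpolated between the two concentrations bracketing the appropriate inhibition level. TGI is the concentration that stops growth completely.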
Columns and labels:
Assay in all cases: DTP human tumour cell line panel, 48 h
RXF 393 renal = test system: RXF 393 renal
HOP-92 NSCLC = test system: HOP-92 NSCLC
A549 NSCLC = test system: A549 NSCLC
PC-3 prostate = test system: PC-3 prostate
NCI-H226 lung = test system: NCI-H226 lung
SK-MEL-2 melanoma = test system: SK-MEL-2 melanoma
MCF7 breast = test system: MCF7 breast
NCI-H23 lung = test system: NCI-H23 lung
RPMI-8226 leukemia = test system: RPMI-8226 leukemia
DU-145 prostate = test system: DU-145 prostate
UO-31 renal = test system: UO-31 renal
SK-MEL-5 melanoma = test system: SK-MEL-5 melanoma
ACHN renal = test system: ACHN renal
HT29 colon = test system: HT29 colon
SW-620 colon = test system: SW-620 colon
SN12C renal = test system: SN12C renal
HL-60(TB) leukemia = test system: HL-60(TB) leukemia
MALME-3M melanoma = test system: MALME-3M melanoma
NCI-H460 lung = test system: NCI-H460 lung
SK-OV-3 ovarian = test system: SK-OV-3 ovarian
SR leukemia = test system: SR leukemia
OVCAR-4 ovarian = test system: OVCAR-4 ovarian
UACC-257 melanoma = test system: UACC-257 melanoma
KM12 colon = test system: KM12 colon
TK-10 renal = test system: TK-10 renal
IGROV1 ovarian = test system: IGROV1 ovarian
NCI/ADR-RES ovarian = test system: NCI/ADR-RES ovarian
SK-MEL-28 melanoma = test system: SK-MEL-28 melanoma
T-47D breast = test system: T-47D breast
HCC-2998 colon = test system: HCC-2998 colon
HCT-116 colon = test system: HCT-116 colon
SNB-19 CNS = test system: SNB-19 CNS
LOX IMVI melanoma = test system: LOX IMVI melanoma
U251 CNS = test system: U251 CNS
CAKI-1 renal = test system: CAKI-1 renal
OVCAR-5 ovarian = test system: OVCAR-5 ovarian
786-0 renal = test system: 786-0 renal
SNB-75 CNS = test system: SNB-75 CNS
M14 melanoma = test system: M14 melanoma
SF-539 CNS = test system: SF-539 CNS
MOLT-4 leukemia = test system: MOLT-4 leukemia
HS 578T breast = test system: HS 578T breast
MDA-N = test system: MDA-N
CCRF-CEM leukemia = test system: CCRF-CEM leukemia
K-562 leukemia = test system: K-562 leukemia
SF-295 CNS = test system: SF-295 CNS
COLO 205 colon = test system: COLO 205 colon
UACC-62 melanoma = test system: UACC-62 melanoma
HCT-15 colon = test system: HCT-15 colon
HOP-62 NSCLC = test system: HOP-62 NSCLC
MDA-MB-231 breast = test system: MDA-MB-231 breast
A498 renal = test system: A498 renal
OVCAR-3 ovarian = test system: OVCAR-3 ovarian
BT-549 breast = test system: BT-549 breast
NCI-H522 lung = test system: NCI-H522 lung
SF-268 CNS = test system: SF-268 CNS
OVCAR-8 ovarian = test system: OVCAR-8 ovarian
EKVX NSCLC = test system: EKVX NSCLC
MDA-MB-435 = test system: MDA-MB-435

Measured: TGI

Cc1ccc2nc3n(c2c1)C(c1c(F)cccc1F)SC3 (stereo not drawn)
not listed: OVCAR-8 ovarian | EKVX NSCLC | MDA-MB-435
> 100 µM: all other assays above

COc1ccc2c(c1)O[C@@H]1[C@@H](OC3OC(CO)C(O)C(O)C3O)Oc3cc(OC)c(OC)cc3[C@]1(O)C2=O (stereo partly drawn)
not listed: MCF7 breast
> 100 µM: all other assays above

Fc1cc(-c2cc(-c3ccccc3)n[nH]2)c(Cl)cc1Cl
23.2 µM: K-562 leukemia
60.7 µM: SF-539 CNS
57.6 µM: MOLT-4 leukemia
not listed: MCF7 breast | HCC-2998 colon | UACC-62 melanoma | A498 renal
> 100 µM: all other assays above

COc1c(-c2nc3nc(N4CCN(C)CC4)ccc3[nH]2)cc(OC)c2c1nc(CO)n2C
not listed: MCF7 breast | SK-MEL-5 melanoma | SR leukemia | TK-10 renal | A498 renal
> 100 µM: all other assays above

Cc1nc2c(=O)n(C)c(=O)n(C)c2o1
not listed: MCF7 breast | DU-145 prostate | HL-60(TB) leukemia | SK-MEL-28 melanoma
> 100 µM: all other assays above
